Laboratory results published in patent US20250163052A1, “cGAS INHIBITORS AND USES THEREOF” (Cornell University, priority 2022, published 2025).

Key:
[1] = target: h-cGAS (Homo sapiens, UniProt Q8N884); test: Cell-free human cGAS enzyme inhibition assay (ATP depletion, Kinase-Glo Max); type: biochemical; conditions: 3 h; for inhibition at 10 µM: read-out: h-cGAS, conc. 10 μM; for inhibition at 1 µM: read-out: h-cGAS, conc. 1 μM
[2] = target: m-cGAS (Mus musculus, UniProt Q8C6L5); test: Cell-free mouse cGAS enzyme inhibition assay (ATP depletion, Kinase-Glo Max); type: biochemical; conditions: 1 h; for inhibition at 10 µM: read-out: m-cGAS, conc. 10 μM; for inhibition at 1 µM: read-out: m-cGAS, conc. 1 μM
Protocol: Cell-free mouse and human cGAS enzyme inhibition assay (Table 2). Activity of all compounds (in Table 1) against m-cGAS (30 nM) and or h-cGAS, (100 nM) was determined by measuring the conversion of ATP and GTP (100 μM each) to cGAMP in the presence of dsDNA (5 ug/mL) in a reaction buffer composed of Tris-HCl (20 mM, pH7.4), NaCl (150 mM), MnCl2 (0.2 mM, h-cGAS) or MgCl2 (5 mM, m-cGAS) and Tween-20 (0.01%), and the remaining ATP concentration using Kinase-Glo®Max Luminescent Kinase Assay (Promega, Madison, WI), as described (Lama, et. al., 2019). Briefly, 10 μl of a master mix of 0.4 mM ATP, 0.4 mM GTP, 0.02 mg/mL dsDNA in the reaction buffer supplemented with 2 mM DTT was added to reaction wells containing TDI-6570 or TDI-8246 (2× of the desired concentration) in the same buffer ([…]) using a Thermo 8-channel Multidrop Combi dispenser. Next, 10 μl of a 4×m-cGAS (0.120 μM) or h-cGAS (0.4 μM) solution in the reaction buffer supplemented with 2 mM DTT was added to appropriate wells. Similar sets of reactions without cGAS or the inhibitor was set by adding the buffer alone. The reactions with the plates sealed were incubated at 37° C. (1 hour for m-cGAS and 3 hours for h-cGAS) and stopped by addition of 40 μl of the Kinase-Glo®Max. The luminescence was recorded in relative light units (RLUs) using a Biotek Synergy H1 Hybrid plate reader (BioTek, Winooski, VT). […] All reactions were run in triplicates and calculated using GraphPad Prism 9. The values represent mean IC50±S.D.

[3] = tested on: IFNB; test: THP1-Dual cells transfected with DNA, Ifnb expression (Quantiluc); type: cell-based; conditions: Homo sapiens; for inhibition at 30 µM: THP-1, 30 μM; for inhibition at 10 µM: THP-1, 10 μM
In short: (§1)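 Readouts after overnight incubation: Quantiluc luminescence for Ifnb, Quantiblue for nfkb (both in supernatant) and CellTiter-Glo for viability. Before the DNA stimulus (2 ug/ml, lipofectamine transfection), THP1-Dual cells received compound at several dilutions for 4 h.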

[4] = tested on: NFkB-SEAP; test: THP1-Dual cells transfected with DNA, nfkb expression (Quantiblue); type: cell-based; conditions: Homo sapiens; for inhibition at 30 µM: THP-1, 30 μM; for inhibition at 10 µM: THP-1, 10 μM
Protocol: Evaluation of active cGAS inhibitors in THP1 cells (Table 3). Cellular activity of all compounds (in Table 3) was determined using THP1-Dual™ cells as described (Lama et. al., 2019). THP1-Dual™ cells (Invivogen) (50000 cells in 100 μl media) were seeded into each well of a 96-well plate and treated with compounds at various dilution for 4 hours. Subsequently, cells were transfected with DNA (2 ug/ml) and lipofectamine and incubate the cells were incubated overnight. Ifnb expression was measured in cell supernatant using Quantiluc, nfkb expression was determined using Quantiblue, and cell viability using Promega® CellTiter-Glo®.

[5] = tested on: THP1 cells; test: THP1-Dual cells, cell viability (CellTiter-Glo); type: cell-based
In short: as §1

Chain of m-cGAS (Q8C6L5 whole entry): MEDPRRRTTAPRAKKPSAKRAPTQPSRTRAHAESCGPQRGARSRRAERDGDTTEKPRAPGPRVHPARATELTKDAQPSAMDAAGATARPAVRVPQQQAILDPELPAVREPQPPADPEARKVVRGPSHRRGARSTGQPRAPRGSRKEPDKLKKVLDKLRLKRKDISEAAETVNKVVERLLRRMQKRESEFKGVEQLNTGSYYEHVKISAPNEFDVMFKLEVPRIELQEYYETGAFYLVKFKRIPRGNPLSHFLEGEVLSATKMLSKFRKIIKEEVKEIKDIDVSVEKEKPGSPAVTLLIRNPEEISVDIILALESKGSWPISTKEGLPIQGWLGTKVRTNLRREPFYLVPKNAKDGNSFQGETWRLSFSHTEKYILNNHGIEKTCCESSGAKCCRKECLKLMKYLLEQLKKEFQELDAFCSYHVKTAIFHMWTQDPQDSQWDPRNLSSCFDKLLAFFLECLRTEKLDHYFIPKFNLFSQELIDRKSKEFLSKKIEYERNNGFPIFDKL
Chain of h-cGAS (Q8N884 whole entry): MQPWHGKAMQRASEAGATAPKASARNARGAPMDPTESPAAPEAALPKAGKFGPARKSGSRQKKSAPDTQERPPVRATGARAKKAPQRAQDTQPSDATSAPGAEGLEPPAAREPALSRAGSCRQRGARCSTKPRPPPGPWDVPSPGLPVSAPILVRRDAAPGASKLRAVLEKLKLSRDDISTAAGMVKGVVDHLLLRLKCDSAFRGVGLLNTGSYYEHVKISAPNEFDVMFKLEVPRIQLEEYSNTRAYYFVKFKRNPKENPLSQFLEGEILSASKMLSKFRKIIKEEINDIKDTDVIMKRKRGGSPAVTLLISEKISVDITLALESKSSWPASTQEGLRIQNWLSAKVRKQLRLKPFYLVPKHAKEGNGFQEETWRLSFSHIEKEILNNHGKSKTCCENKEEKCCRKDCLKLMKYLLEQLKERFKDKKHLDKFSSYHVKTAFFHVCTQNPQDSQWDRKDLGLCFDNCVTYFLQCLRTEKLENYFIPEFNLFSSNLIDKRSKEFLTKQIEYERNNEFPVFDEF

Row | SMILES | inhibition at 10 µM [1] | inhibition at 10 µM [2] | inhibition at 30 µM [3] | inhibition at 30 µM [4] | Cell viability 30 μM [5] | inhibition at 1 µM [1] | inhibition at 1 µM [2] | inhibition at 10 µM [4] | Cell viability 10 μM [5] | inhibition at 10 µM [3]
1 | O=C(CO)N1CCc2oc3c(Cl)c(Cl)ccc3c2C1 [Compound 21] | 25 to 49% | 75 to 100% | < 24% | < 24% | +++ (+, ++, and +++ mean the compound respectively shows 25-49%; 50-74%; or 75-100% viability to cells) |  |  |  |  | 
2 | O=C(CO)N1CCc2oc3c(Cl)c(Cl)cc(-c4cncnc4)c3c2C1 [Compound 25] | 50 to 74% | 50 to 74% | < 24% |  |  | 25 to 49% | 0 to 24% | < 24% | +++ (+, ++, and +++ mean the compound respectively shows 25-49%; 50-74%; or 75-100% viability to cells) | 
3 | NCC(=O)N1CCc2oc3c(Cl)c(Cl)cc(-c4cncnc4)c3c2C1 [Compound 32] | 50 to 74% | 75 to 100% | < 24% | < 24% | +++ (+, ++, and +++ mean the compound respectively shows 25-49%; 50-74%; or 75-100% viability to cells) | 25 to 49% | 50 to 74% | < 24% | +++ (+, ++, and +++ mean the compound respectively shows 25-49%; 50-74%; or 75-100% viability to cells) | < 24%
4 | NCC(=O)N1CCc2sc3c(Cl)c(Cl)cc(-c4cncnc4)c3c2C1 [Compound 53] | 50 to 74% | 75 to 100% | 75 to 100% | 50 to 74% | − (Cell viability <24%, in THP1 cells is expressed as “−”) | 0 to 24% | 0 to 24% | 25 to 49% | +++ (+, ++, and +++ mean the compound respectively shows 25-49%; 50-74%; or 75-100% viability to cells) | < 24%
5 | Cn1cc(-c2cc(Cl)c(Cl)c3sc4c(c23)CCN(C(=O)CO)C4)cn1 [Compound 62] | 25 to 49% | 75 to 100% |  |  |  |  | 25 to 49% | < 24% | +++ (+, ++, and +++ mean the compound respectively shows 25-49%; 50-74%; or 75-100% viability to cells) | 50 to 74%
6 | NCC(=O)N1CCc2c(sc3c(Cl)c(Cl)cc(-c4cncnc4)c23)C1 [Compound 73] | 50 to 74% | 50 to 74% | 75 to 100% | 75 to 100% | − (Cell viability <24%, in THP1 cells is expressed as “−”) | 0 to 24% | 0 to 24% | < 24% | +++ (+, ++, and +++ mean the compound respectively shows 25-49%; 50-74%; or 75-100% viability to cells) | < 24%
7 | NCC(=O)N1CCc2c(sc3c(Cl)c(Cl)cc(-c4ccc(N)nc4)c23)C1 [Compound 75] | 50 to 74% | 75 to 100% | 75 to 100% | 75 to 100% | +++ (+, ++, and +++ mean the compound respectively shows 25-49%; 50-74%; or 75-100% viability to cells) | 0 to 24% |  | < 24% | +++ (+, ++, and +++ mean the compound respectively shows 25-49%; 50-74%; or 75-100% viability to cells) | 75 to 100%
8 | CNc1ccc(-c2cc(Cl)c(Cl)c3sc4c(c23)CCN(C(=O)CN)C4)cn1 [Compound 76] | 50 to 74% | 75 to 100% | 75 to 100% | 75 to 100% | +++ (+, ++, and +++ mean the compound respectively shows 25-49%; 50-74%; or 75-100% viability to cells) | 0 to 24% |  | < 24% | +++ (+, ++, and +++ mean the compound respectively shows 25-49%; 50-74%; or 75-100% viability to cells) | 75 to 100%
9 | NCC(=O)N1CCc2c(sc3c(Cl)c(Cl)cc(-c4cc[nH]n4)c23)C1 [Compound 77] | 50 to 74% | 75 to 100% | 75 to 100% | 75 to 100% | − (Cell viability <24%, in THP1 cells is expressed as “−”) | 25 to 49% | 25 to 49% | 50 to 74% | +++ (+, ++, and +++ mean the compound respectively shows 25-49%; 50-74%; or 75-100% viability to cells) | 25 to 49%
10 | NCC(=O)N1CCc2c(sc3c(Cl)c(Cl)cc(-c4cccnc4)c23)C1 [Compound 78] | 50 to 74% | 75 to 100% | 75 to 100% | 75 to 100% | − (Cell viability <24%, in THP1 cells is expressed as “−”) | 0 to 24% | 25 to 49% | 50 to 74% | + (+, ++, and +++ mean the compound respectively shows 25-49%; 50-74%; or 75-100% viability to cells) | 75 to 100%
11 | NCC(=O)N1CCc2c(sc3c(Cl)c(Cl)cc(-c4ccncc4)c23)C1 [Compound 79] | 25 to 49% | 75 to 100% | 75 to 100% | 75 to 100% | − (Cell viability <24%, in THP1 cells is expressed as “−”) |  | 25 to 49% | 50 to 74% | + (+, ++, and +++ mean the compound respectively shows 25-49%; 50-74%; or 75-100% viability to cells) | 75 to 100%
12 | NCC(=O)N1CCc2c(sc3c(Cl)c(Cl)cc(-c4ccco4)c23)C1 [Compound 80] | 75 to 100% | 75 to 100% | 75 to 100% | 75 to 100% | − (Cell viability <24%, in THP1 cells is expressed as “−”) | 25 to 49% | 25 to 49% | 50 to 74% | +++ (+, ++, and +++ mean the compound respectively shows 25-49%; 50-74%; or 75-100% viability to cells) | 50 to 74%
13 | NCC(=O)N1CCc2c(sc3c(Cl)c(Cl)cc(-c4cccs4)c23)C1 [Compound 81] | 50 to 74% | 50 to 74% | 75 to 100% | 75 to 100% | − (Cell viability <24%, in THP1 cells is expressed as “−”) | 0 to 24% | 0 to 24% | 75 to 100% | +++ (+, ++, and +++ mean the compound respectively shows 25-49%; 50-74%; or 75-100% viability to cells) | 50 to 74%
